The values that follow come from ChEMBL document CHEMBL6092147, “Design of inhibitors of SARS-CoV-2 papain-like protease deriving from GRL0617: Structure-activity relationships” (Bioorg Med Chem, 2024).

The IC50 is the concentration at which inhibition is half-maximal. High values mean a need for much substance, low ones inhibition by little substance.

For one assay, the target named is T1, Replicase polyprotein 1ab (Severe acute respiratory syndrome coronavirus 2, UniProt P0DTD1). Briefly: Inhibition of SARS-CoV-2 Main protease extracted from Escherichia coli BL21 (DE3) cells measured for 60 mins by FRET based analysis.
`Cc1ccc(NCC2CN(C)CCN2)cc1C(=O)N[C@H](C)c1cccc2ccccc12` (mixture of isomers) showed an IC50 of 1500 nM.

With `Cc1ccc(NC2CCN(C[C@@H]3CCCN3)CC2)cc1C(=O)N[C@H](C)c1cccc2ccccc12`, the 50% inhibitory concentration (IC50) is 1000 nM.

As for `Cc1ccc(NC[C@@H]2CCCCN2C)cc1C(=O)N[C@H](C)c1cccc2ccccc12`, half-maximal inhibition (IC50) required 1400 nM.

Turning to `Cc1ccc(NC(=O)CNCC2CC2)cc1C(=O)N[C@H](C)c1cccc2ccccc12`, it took 1300 nM to reach half-maximal inhibition (IC50).

For the compound `Cc1ccc(NC(=O)CN2CCCC2)cc1C(=O)N[C@H](C)c1cccc2ccccc12`, half-maximal inhibition (IC50) was put at 1100 nM.

Compound `Cc1ccc(NC[C@H]2CCCCN2C)cc1C(=O)N[C@H](C)c1cccc2ccccc12` had an IC50 of 1500 nM.

Consider `Cc1ccc(NCC2(C)CCN2)cc1C(=O)N[C@H](C)c1cccc2ccccc12` (mixture of isomers), for which the IC50 was 800 nM.

For `Cc1ccc(NC[C@H]2CCCN2C)cc1C(=O)N[C@H](C)c1cccc2ccccc12`, the 50% inhibitory concentration (IC50) was 1500 nM.

For the compound `Cc1ccc(NC[C@]2(C)CCCN2)cc1C(=O)N[C@H](C)c1cccc2ccccc12`, the midpoint of inhibition, the IC50, lay at 1200 nM.

Take `Cc1ccc(NCC2CNC2)cc1C(=O)N[C@H](C)c1cccc2ccccc12`: the half-inhibitory concentration (IC50) stood at 1000 nM.

`Cc1ccc(NC(=O)C2CN(C(C)C)CCN2)cc1C(=O)N[C@H](C)c1cccc2ccccc12` (mixture of isomers) yielded a half-inhibitory concentration (IC50) of 1400 nM.

The compound `Cc1ccc(NC(=O)C2CNCCN2)cc1C(=O)N[C@H](C)c1cccc2ccccc12` (mixture of isomers) came in with an IC50 of 1500 nM.

As for `Cc1ccc(NC(=O)NCCN)cc1C(=O)N[C@H](C)c1cccc2ccccc12`, the IC50 worked out at 1100 nM.

In another assay the target is T1, Replicase polyprotein 1ab. Briefly: Inhibition of SARS-CoV-2 Main protease using Dabcyl-KLSAVLQSGFRKM-Edans-NH2 as substrate incubated for 30 mins by FRET based enzymatic assay.
As to `Cc1ccc(OCCN(C)C)cc1C(=O)N[C@H](C)c1cc(-c2cnn(CC(N)=O)c2)cc(-c2cccs2)c1`, half-maximal inhibition (IC50) required 80 nM.

As to `Cc1ccc(OCCN(C)C)cc1C(=O)N[C@H](C)c1cc(-c2cnn(CCO)c2)cc(-c2cccs2)c1`, 110 nM corresponded to half-maximal inhibition (IC50).

`Cc1ccc(OCCN(C)C)cc1C(=O)N[C@H](C)c1cc(-c2cn[nH]c2)cc(-c2cccs2)c1`: 80 nM corresponded to half-maximal inhibition (IC50).

In turn, `COCCn1cc(-c2cc(-c3ccn(C)n3)cc([C@@H](C)NC(=O)c3cc(OCCN(C)C)ccc3C)c2)cn1` returned an IC50 of 90 nM.

`Cc1ccc(OCCN(C)C)cc1C(=O)N[C@H](C)c1cc(-c2cnn(C)c2)cc(-c2cccs2)c1` registered an IC50 of 150 nM.

`Cc1ccc(OCCN(C)C)cc1C(=O)N[C@H](C)c1cc(-c2cnn(CCO)c2)cc(-c2ccnn2C)c1`: the midpoint of inhibition, the IC50, lay at 140 nM.

Compound `Cc1ccc(OCCN(C)C)cc1C(=O)N[C@H](C)c1cc(-c2cnn(C(C)C)c2)cc(-c2ccn(C)n2)c1` gave an IC50 of 110 nM.

Compound `Cc1ccc(OCCN(C)C)cc1C(=O)N[C@H](C)c1cc(-c2cnn(CCO)c2)cc(-c2cnn(CCN(C)C)c2)c1` gave an IC50 of 140 nM.

On to `Cc1ccc(OCCN(C)C)cc1C(=O)N[C@H](C)c1cc(-c2ccc(N3CCOCC3)nc2)cc(-c2cccs2)c1`, for which the half-maximal inhibitory concentration (IC50) is 90 nM.

`Cc1ccc(OCCN(C)C)cc1C(=O)N[C@H](C)c1cc(-c2ccn(C)n2)cc(-c2ccn(C3CC3)n2)c1` gave a half-inhibitory concentration (IC50) of 120 nM.

For the compound `COCCn1cc(-c2cc(-c3cnn(CCO)c3)cc([C@@H](C)NC(=O)c3cc(OCCN(C)C)ccc3C)c2)cn1`, 100 nM corresponded to half-maximal inhibition (IC50).

`Cc1ccc(OCCN(C)C)cc1C(=O)N[C@H](C)c1cc(-c2cnn(C)c2)cc(-c2ccc(CN3CCOCC3)o2)c1` had an IC50 of 120 nM.

For `Cc1ccc(OCCN(C)C)cc1C(=O)N[C@H](C)c1cc(-c2cnn(CC3CCOCC3)c2)cc(-c2ccn(C)n2)c1`, inhibition was half-maximal at 80 nM (IC50).

Compound `Cc1ccc(OCCN(C)C)cc1C(=O)N[C@H](C)c1cc(-c2cnn(C(F)F)c2)cc(-c2cccs2)c1` showed an IC50 of 70 nM.

As to `COCCn1cc(-c2cc(-c3cnn(CC(F)F)c3)cc([C@@H](C)NC(=O)c3cc(OCCN(C)C)ccc3C)c2)cn1`, the IC50 amounted to 200 nM.

In turn, `COCCn1cc(-c2cc(-c3cnn(CC(N)=O)c3)cc([C@@H](C)NC(=O)c3cc(OCCN(C)C)ccc3C)c2)cn1` came in with an IC50 of 90 nM.

For `Cc1ccc(OCCN(C)C)cc1C(=O)N[C@H](C)c1cc(-c2cnn(C)c2)cc(-c2cnn(CC(N)=O)c2)c1`, 70 nM corresponded to half-maximal inhibition (IC50).

Consider `Cc1ccc(OCCN(C)C)cc1C(=O)N[C@H](C)c1cc(-c2cnn(CCN(C)C)c2)cc(-c2cccs2)c1`, for which the IC50 was 110 nM.

With `Cc1ccc(OCCN(C)C)cc1C(=O)N[C@H](C)c1cc(-c2ccc(N3CCOCC3)nc2)cc(-c2cnn(C)c2)c1`, the midpoint of inhibition, the IC50, lay at 80 nM.

`Cc1ccc(OCCN(C)C)cc1C(=O)N[C@H](C)c1cc(-c2cnn(C)c2)cc(-c2cnn(CC3CCOCC3)c2)c1`: the IC50 turned out to be 70 nM.

Consider `Cc1ccc(OCCN(C)C)cc1C(=O)N[C@H](C)c1cc(-c2cnn(CCO)c2)cc(-c2ccc(CN3CCCC3)s2)c1`, for which 70 nM corresponded to half-maximal inhibition (IC50).

`Cc1ccc(OCCN(C)C)cc1C(=O)N[C@H](C)c1cc(-c2cnn(CCN3CCOCC3)c2)cc(-c2cccs2)c1` had an IC50 of 60 nM.

For `Cc1ccc(OCCN(C)C)cc1C(=O)N[C@H](C)c1cc(-c2ccc3cnn(C)c3c2)cc(-c2cnn(C)c2)c1`, the IC50 came to 130 nM.

In turn, `Cc1ccc(OCCN(C)C)cc1C(=O)N[C@H](C)c1cc(-c2ccn(C)n2)cc(-c2ccn(C)n2)c1` displayed an IC50 of 140 nM.

`COCCn1cc(-c2cc(-c3cccs3)cc([C@@H](C)NC(=O)c3cc(OCCN(C)C)ccc3C)c2)cn1`: half-maximal inhibition (IC50) was put at 110 nM.

In turn, `Cc1ccc(OCCN(C)C)cc1C(=O)N[C@H](C)c1cc(-c2cnn(C(F)F)c2)cc(-c2cnn(C3CC3)c2)c1` had an IC50 of 90 nM.

`Cc1ccc(OCCN(C)C)cc1C(=O)N[C@H](C)c1cc(-c2cnn(C)c2)cc(-c2cnn(CCO)c2)c1` showed an IC50 of 90 nM.

`Cc1ccc(OCCN(C)C)cc1C(=O)N[C@H](C)c1cc(-c2cnn(C(C)C)c2)cc(-c2cnn(C(F)F)c2)c1` registered a 50% inhibitory concentration (IC50) of 160 nM.

In turn, `COCCn1cc(-c2cc(-c3cnn(C(F)F)c3)cc([C@@H](C)NC(=O)c3cc(OCCN(C)C)ccc3C)c2)cn1` gave an IC50 of 110 nM.

`Cc1ccc(OCCN(C)C)cc1C(=O)N[C@H](C)c1cc(-c2cnn(C(F)F)c2)cc(-c2ccn(C)n2)c1` yielded an IC50 of 90 nM.

As for `Cc1ccc(OCCN(C)C)cc1C(=O)N[C@H](C)c1cc(-c2cnn(CC(F)(F)F)c2)cc(-c2cccs2)c1`, half-maximal inhibition (IC50) was put at 70 nM.

In turn, `Cc1ccc(OCCN(C)C)cc1C(=O)N[C@H](C)c1cc(-c2cnn(CCO)c2)cc(-c2cnn(C(F)F)c2)c1` registered an IC50 of 90 nM.

As for `COCCn1cc(-c2cc(-c3cncs3)cc([C@@H](C)NC(=O)c3cc(OCCN(C)C)ccc3C)c2)cn1`, the half-inhibitory concentration (IC50) was 110 nM.

In the case of `CC(=O)n1cc(-c2cc(-c3cnn(C)c3)cc([C@@H](C)NC(=O)c3cc(OCCN(C)C)ccc3C)c2)cn1`, the 50% inhibitory concentration (IC50) worked out at 110 nM.

The target of another assay is T1, Replicase polyprotein 1ab. Briefly: Inhibition of SARS-CoV-2 papain-like protease (PLpro) by enzymatic assay.
`Cc1ccc(OCCN(C)C)cc1C(=O)N[C@H](C)c1cc(-c2ccnn2C)cc(-c2ccnn2C)c1` gave a half-maximal inhibitory concentration (IC50) of 460 nM.

`Cc1ccc(OCCN(C)C)cc1C(=O)N[C@H](C)c1cc(-c2ccccc2)cc(-c2ccccc2)c1`: the IC50 was determined as 103 nM.

For the compound `Cc1ccc(-c2cc(-c3ccc(C)s3)cc([C@@H](C)NC(=O)c3cc(OCCN(C)C)ccc3C)c2)s1`, inhibition was half-maximal at 140 nM (IC50).

In turn, `Cc1ccc(OCCN(C)C)cc1C(=O)N[C@H](C)c1cc(-c2ccoc2)cc(-c2ccoc2)c1` registered a concentration for half-maximal inhibition (IC50) of 80 nM.

On to `CCn1ccc(-c2cc(-c3ccn(CC)n3)cc([C@@H](C)NC(=O)c3cc(OCCN(C)C)ccc3C)c2)n1`, for which the half-inhibitory concentration (IC50) was 200 nM.

For `CCn1ccc(-c2cc(-c3cnn(C(C)C)c3)cc([C@@H](C)NC(=O)c3cc(OCCN(C)C)ccc3C)c2)n1`, inhibition was half-maximal at 200 nM (IC50).

The compound `CCn1ccc(-c2cc(-c3cnn(C4COC4)c3)cc([C@@H](C)NC(=O)c3cc(OCCN(C)C)ccc3C)c2)n1` displayed an IC50 of 260 nM.

Regarding `CCn1nccc1-c1cc(-c2ccnn2CC)cc([C@@H](C)NC(=O)c2cc(OCCN(C)C)ccc2C)c1`, the IC50 was determined as 440 nM.

Compound `CCn1ccc(-c2cc(-c3ccn(C)n3)cc([C@@H](C)NC(=O)c3cc(OCCN(C)C)ccc3C)c2)n1` had an IC50 of 330 nM.

For the compound `Cc1ccc(OCCN(C)C)cc1C(=O)N[C@H](C)c1cc(-c2ccco2)cc(-c2ccco2)c1`, half-maximal inhibition (IC50) required 200 nM.

In turn, `CCn1ccc(-c2cc(-c3cnn(CC(F)(F)F)c3)cc([C@@H](C)NC(=O)c3cc(OCCN(C)C)ccc3C)c2)n1` showed an IC50 of 270 nM.

As for `Cc1ccc(OCCN(C)C)cc1C(=O)N[C@H](C)c1cc(-c2cncs2)cc(-c2cncs2)c1`, 100 nM corresponded to half-maximal inhibition (IC50).

For `CCn1ccc(-c2cc(-c3cnn(C(F)F)c3)cc([C@@H](C)NC(=O)c3cc(OCCN(C)C)ccc3C)c2)n1`, half-maximal inhibition (IC50) was put at 320 nM.

Regarding `CCn1ccc(-c2cc(-c3ccn(CC(F)F)n3)cc([C@@H](C)NC(=O)c3cc(OCCN(C)C)ccc3C)c2)n1`, the IC50 amounted to 220 nM.

`Cc1ccc(OCCN(C)C)cc1C(=O)N[C@H](C)c1cc(-c2cnn(C(F)F)c2)cc(-c2cnn(C(F)F)c2)c1` gave an IC50 of 170 nM.

`COCCn1cc(-c2cc(-c3cnn(CCOC)c3)cc([C@@H](C)NC(=O)c3cc(OCCN(C)C)ccc3C)c2)cn1` returned an IC50 of 180 nM.

On to `Cc1ccc(OCCN(C)C)cc1C(=O)N[C@H](C)c1cc(-c2c(C)noc2C)cc(-c2c(C)noc2C)c1`, for which the 50% inhibitory concentration (IC50) was 400 nM.

`CCn1ccc(-c2cc(-c3cnn(CC(F)F)c3)cc([C@@H](C)NC(=O)c3cc(OCCN(C)C)ccc3C)c2)n1` gave an IC50 of 230 nM.

`Cc1ccc(OCCN(C)C)cc1C(=O)N[C@H](C)c1cc(-c2ccc(O)cc2)cc(-c2ccc(O)cc2)c1` had a half-maximal inhibitory concentration (IC50) of 160 nM.

Turning to `COc1ncc(-c2cc(-c3cnc(OC)nc3)cc([C@@H](C)NC(=O)c3cc(OCCN(C)C)ccc3C)c2)cn1`, inhibition was half-maximal at 1950 nM (IC50).

Compound `Cc1ccc(OCCN(C)C)cc1C(=O)N[C@H](C)c1cc(-c2ccsc2)cc(-c2ccsc2)c1` came in with an IC50 of 100 nM.

In the case of `Cc1ccc(OCCN(C)C)cc1C(=O)N[C@H](C)c1cc(-c2cnn(CCO)c2)cc(-c2cnn(CCO)c2)c1`, the half-inhibitory concentration (IC50) worked out at 160 nM.

On to `CCn1ccc(-c2cc(-c3ccn(C(F)F)n3)cc([C@@H](C)NC(=O)c3cc(OCCN(C)C)ccc3C)c2)n1`, for which half-maximal inhibition (IC50) required 400 nM.

The compound `CCn1ccc(-c2cc(-c3cnn(COC)c3)cc([C@@H](C)NC(=O)c3cc(OCCN(C)C)ccc3C)c2)n1` displayed an IC50 of 240 nM.
